Laboratory results as given in patent publication US7105531B2, “Tricyclic protein kinase inhibitors” (WYETH, priority 1999, dated 2006).

Compound	melting point
COc1cc2cc3c(Nc4ccc(Sc5nccn5C)c(Cl)c4)c(C#N)cnc3cc2cc1OCCCl [Example 148, 8-(2-Chloroethoxy)-4-[3-chloro-4-(1-methyl-1H-imidazol-2-ylsulfanyl)phenylamino]-7-methoxybenzo[g]quinoline-3-carbonitrile]	275 to 280 °C
COc1cc2cc3c(Nc4ccc(Sc5nccn5C)c(Cl)c4)c(C#N)cnc3cc2cc1OCCN1CCOCC1 [Example 149]	> 300 °C
COc1cc2cc3c(Nc4ccc(Sc5nccn5C)c(Cl)c4)c(C#N)cnc3cc2cc1OCCCCl [Example 150, 4-[3-Chloro-4-(1-methyl-1H-imidazol-2-ylsulfanyl)phenylamino]-8-(3-chloropropoxy)-7-methoxybenzo[g]quinoline-3-carbonitrile]	> 300 °C
COc1cc2cc3c(Nc4ccc(Sc5nccn5C)c(Cl)c4)c(C#N)cnc3cc2cc1OCCCN1CCOCC1 [Example 151, 4-[3-Chloro-4-(1-methyl-1H-imidazol-2-ylsulfanyl)phenylamino]-7-methoxy-8-(3-morpholin-4-yl-propoxy)benzo[g]quinoline-3-carbonitrile]	230 to 235 °C
COc1cc2cc3c(Nc4ccc(Sc5nccn5C)c(Cl)c4)c(C#N)cnc3cc2cc1OCCN1CCN(C)CC1 [Example 152, 4-[3-Chloro-4-(1-methyl-1H-imidazol-2-ylsulfanyl)phenylamino]-7-methoxy-8-[2-(4-methylpiperazin-1-yl)ethoxy]-benzo[g]quinoline-3-carbonitrile]	184 to 186 °C
COc1cc2cc3c(Nc4ccc(Sc5nccn5C)c(Cl)c4)c(C#N)cnc3cc2cc1OCCn1ccnn1 [Example 154, 4-[3-Chloro-4-(1-methyl-1H-imidazol-2-ylsulfanyl)phenylamino]-7-methoxy-8-(2-[1,2,3]triazol-1-yl-ethoxy)benzo[g]quinoline-3-carbonitrile]	201 to 207 °C
COc1cc2cc3c(Nc4cc(OC)c(Cl)cc4Cl)c(C#N)cnc3cc2cc1O [Example 155, 4-(2,4-Dichloro-5-methoxyphenylamino)-8-hydroxy-7-methoxybenzo[g]quinoline-3-carbonitrile]	238 to 240 °C
COc1cc(Nc2c(C#N)cnc3cc4cc(OCCCCl)c(OC)cc4cc23)c(Cl)cc1Cl [Example 156, 8-(3-Chloropropoxy)-4-(2,4-dichloro-5-methoxyphenylamino)-7-methoxybenzo[g]quinoline-3-carbonitrile]	220 to 223 °C
COc1cc2cc3c(Nc4ccc(Sc5nccn5C)c(Cl)c4)c(C#N)cnc3nc2cc1OCCCl [Example 174, 8-(2-Chloroethoxy)-4-{3-chloro-4-[(1-methyl-1H-imidazol-2-yl)sulfanyl]anilino}-7-methoxybenzo[b][1,8]naphthyridine-3-carbonitrile]	> 250 °C (dec.)
COc1cc(Nc2c(C#N)cnc3nc4cc(OCCN5CCN(C)CC5)c(OC)cc4cc23)c(Cl)cc1Cl [Example 175, 4-(2,4-Dichloro-5-methoxyanilino)-7-methoxy-8-[2-(4-methyl-1-piperazinyl)ethoxy]benzo[b][1,8]naphthyridine-3-carbonitrile]	240 to 243 °C (dec.)
COc1cc2cc3c(Nc4ccc(Sc5nccn5C)c(Cl)c4)c(C#N)cnc3nc2cc1OCCN1CCOCC1 [Example 176, 4-{3-Chloro-4-[(1-methyl-1H-imidazol-2-yl)sulfanyl]anilino}-7-methoxy-8-[2-(4-morpholinyl)ethoxy]benzo[b][1,8]naphthyridine-3-carbonitrile]	160 to 162 °C (dec.)
COc1cc2cc3c(Nc4ccc(Cl)cc4Cl)c(C#N)cnc3nc2cc1OC [Example 177, 4-(2,4-Dichloroanilino)-7,8-dimethoxybenzo[b][1,8]naphthyridine-3-carbonitrile]	266 to 270 °C (dec.)
COc1cc2cc3c(Nc4cc(OC)c(OC)c(OC)c4)c(C#N)cnc3nc2cc1OC [Example 178, 7,8-Dimethoxy-4-(3,4,5-trimethoxyanilino)benzo[b][1,8]naphthyridine-3-carbonitrile]	250 to 252 °C (dec.)
CCOc1cc2cc3c(Nc4cc(OC)c(Cl)cc4C)c(C#N)cnc3cc2cc1OCCCl [Example 179, 8-(2-Chloroethoxy)-4-(4-chloro-5-methoxy-2-methylanilino)-7-ethoxybenzo[g]quinoline-3-carbonitrile]	129 to 130 °C
COc1cc(Nc2c(C#N)cnc3cc4cc(OCCCl)c(OC)cc4cc23)c(Cl)cc1F [Example 180, 8-(2-Chloroethoxy)-4-(2-chloro-4-fluoro-5-methoxyanilino)-7-methoxybenzo[g]quinoline-3-carbonitrile]	193 to 204 °C

Results, then the compound that gave them:

melting point	Compound
222 to 236 °C	COc1cc(Nc2c(C#N)cnc3cc4cc(OCCCl)c(OC)cc4cc23)c(Cl)cc1C [Example 182, 8-(2-Chloroethoxy)-4-(2-chloro-5-methoxy-4-methylphenylamino)-7-methoxybenzo[g]quinoline-3-carbonitrile]
137 to 159 °C	COc1cc2cc3c(Nc4ccc(F)c(Cl)c4)c(C#N)cnc3cc2cc1OCCCl [Example 185, 8-(2-Chloroethoxy)-4-(3-chloro-4-fluoroanilino)-7-methoxybenzo[g]quinoline-3-carbonitrile]
182 to 185 °C	COc1cc2cc3ncc(C#N)c(Nc4ccc(OCc5ccccc5)c(Cl)c4)c3cc2cc1OCCCl [Example 186, 4-(4-Benzyloxy-3-chlorophenylamino)-7-(2-chloroethoxy)-8-methoxybenzo[g]quinoline-3-carbonitrile]
70 to 71 °C	CCOC(=O)CN(CCOc1cc2cc3c(Nc4cc(OC)c(Cl)cc4C)c(C#N)cnc3cc2cc1OCC)CC(=O)OCC [Example 192, ({2[4-(4-Chloro-5-methoxy-2-methylphenylamino)-3-cyano-8-ethoxybenzo[g]quinoline-7-yloxy]-ethyl}-ethoxycarbonylmethyl-amino)-acetic acid ethyl ester]
85 to 86 °C	CCOC(=O)CN(CCOc1cc2cc3ncc(C#N)c(Nc4cc(OC)c(Cl)cc4C)c3cc2cc1OCC)CC(=O)OCC [Example 193, ({2-[4-(4-Chloro-5-methoxy-2-methylphenylamino)-3-cyano-7-ethoxybenzo[g]quinoline-8-yloxy]-ethyl}-ethoxycarbonylmethylamino)-acetic acid ethyl ester]
237 to 242 °C	COc1cc2cc3c(Nc4ccc(F)c(Cl)c4)c(C#N)cnc3cc2cc1OCCN1CCOCC1 [Example 205, 4-(3-Chloro-4-fluoroanilino)-7-methoxy-8-[2-(4-morpholinyl)ethoxy]benzo[g]quinoline-3-carbonitrile]
190 to 194 °C	COc1cc2cc3c(Nc4ccc(Oc5ccccc5)c(Cl)c4)c(C#N)cnc3cc2cc1OCCN1CCOCC1 [Example 213, 4-(3-Chloro-4-phenoxyphenylamino)-7-methoxy-8-(2-morpholin-4-yl-ethoxy)benzo[g]quinoline-3-carbonitrile]
251 to 253 °C	COc1cc2cc3ncc(C#N)c(Nc4ccc(Oc5ccccc5)c(Cl)c4)c3cc2cc1OCCN1CCOCC1 [Example 214, 4-(3-Chloro-4-phenoxyphenylamino)-8-methoxy-7-(2-morpholin-4-yl-ethoxy)benzo[g]quinoline-3-carbonitrile]
